Measured values: patent publication US5451599A, “Complex salts of hematoporphyrin and of its derivatives, their synthesis, and therapeutic agent” (Wojskowa Akademia Techniczna im. Jaroslawa Dabrowskiego, priority 1991, dated 1995)

Assays:
[1] = system: KB (oral cavity cancer cells); assay: 48 h incubation with the salts: cell fluorescence, living cells, multiplication coefficient (Table 2); type: cell-based, Human; conditions: 48 hs, 50 mcg/ml
Method: (§1) New compounds of formula 1 were tested on cell lines. Use was made of 9 different neoplastic cell lines which were incubated for 48 hs with various new salts of protoporphyrin and with a new salt of the conventionally applied HpD preparation/hematoporphyrin derivatives/obtained according to Lipson et al. All compounds were used in the form of aqueous solutions, at a concentration of 50 mcg/ml. Determination was made of:
(§2) 1/ Cell fluorescence /F/: after 48 hs incubation, the cells were washed away, the intensity of fluorescence was measured in a fluorescence microscope and was expressed on an arbitrary scale of 0-4 scores;
(§3) 2/ Percentage of living cells /P %/ after 48 hs incubation;
(§4) 3/ Cell multiplication coefficient /M/ in the presence of different preparations, expressed as: [formula]
KB oral cavity cancer cells

[2] = system: HEp-2 (larynx cancer cells); assay: 48 h incubation with the salts: cell fluorescence, living cells, multiplication coefficient (Table 3); type: cell-based, Human; conditions: 48 hs, 50 mcg/ml
Method: as §1, §2, §3, §4
Hep-2 larynx cancer cells

[3] = system: GR (GRMT/F6, mammary gland cancer cells of GR-strain mice); assay: 48 h incubation with the salts: cell fluorescence, living cells, multiplication coefficient (Table 2); type: cell-based, Murine; conditions: 48 hs, 50 mcg/ml
Method: as §1, §2, §3, §4
GRMT/F6 mammary gland cancer cells of GR-strain mice

[4] = system: T-47D (breast cancer cells); assay: 48 h incubation with the salts: cell fluorescence, living cells, multiplication coefficient (Table 3); type: cell-based, Human; conditions: 48 hs, 50 mcg/ml
Method: as §1, §2, §3, §4
T-47D breast cancer cells

[5] = system: Mm (Mm5MT/C1, mammary gland cancer cells of C3H-strain mice); assay: as above; type: cell-based, Murine; conditions: for Cell fluorescence /F/ / Cell multiplication coefficient /M/ / Percentage of living cells /P %/: Mm, 48 hs, 50 mcg/ml
Method: as §1, §2, §3, §4
mammary gland cancer cells of C3H-strain mice

[6] = system: HBT-39/w (breast cancer cells); assay: 48 h incubation with the salts: cell fluorescence, living cells, multiplication coefficient (Table 2); type: cell-based, Human; conditions: 48 hs, 50 mcg/ml
Method: as §1, §2, §3, §4

PZ = assay: 48 h incubation with the salts: cell fluorescence, living cells, multiplication coefficient (Table 1); type: cell-based; conditions: 48 hs, 50 mcg/ml
Method: as §1, §2, §3, §4

CL = assay: as above; type: cell-based; conditions: 48 hs, 50 mcg/ml
Method: as §1, §2, §3, §4

[7] = system: MA-104 (Rhesus monkey embryo kidney cancer cells); assay: as above; type: cell-based; conditions: 48 hs, 50 mcg/ml
Method: as §1, §2, §3, §4

[8] = system: Hela (cervix uteri cancer cells); assay: as above; type: cell-based, Human; conditions: 48 hs, 50 mcg/ml
Method: as §1, §2, §3, §4

| Compound | Cell fluorescence /F/ [1] | Cell multiplication coefficient /M/ [1] | Percentage of living cells /P %/ [1] | Cell fluorescence /F/ [2] | Cell multiplication coefficient /M/ [2] | Percentage of living cells /P %/ [2] | Cell fluorescence /F/ [3] | Cell multiplication coefficient /M/ [3] | Percentage of living cells /P %/ [3] | Cell fluorescence /F/ [4] | Cell multiplication coefficient /M/ [4] | Percentage of living cells /P %/ [4] | Cell fluorescence /F/ [5] | Cell multiplication coefficient /M/ [5] | Percentage of living cells /P %/ [5] | Cell fluorescence /F/ [6] | Cell multiplication coefficient /M/ [6] | Percentage of living cells /P %/ [6] | Cell fluorescence /F/ (PZ) | Cell multiplication coefficient /M/ (PZ) | further results |
| --- | --- | --- | --- | --- | --- | --- | --- | --- | --- | --- | --- | --- | --- | --- | --- | --- | --- | --- | --- | --- | --- |
| CC1=C(CCC(=O)O)c2cc3[nH]c(cc4nc(cc5[nH]c(cc1n2)c(C(C)NC(CCC(=O)O)C(=O)O)c5C)C(C(C)NC(CCC(=O)O)C(=O)O)=C4C)c(C)c3CCC(=O)O.N=C(N)NCCC[C@H](N)C(=O)O.N=C(N)NCCC[C@H](N)C(=O)O (stereo not drawn) [PP/Glu/2 /Arg/2, l-arginine di/N-glutamyl/-protoporphyrinate] | ++++ | 0,08 | 8% | ++++ | 0,08 | 15% | + | 0,75 | 75% | +++ | 0,80 | 49% | +++ | 0,70 | 76% | + | 0,73 | 66% | + | 0,15 | activity in studies of the Mm5MT/C1 cell line (in words) ([5]; mammary gland cancer of C3H mice): least effective against this type of neoplasm; Percentage of living cells /P %/ (PZ): 15%; Cell fluorescence /F/ (CL): -; Cell multiplication coefficient /M/ (CL): 0,45; Percentage of living cells /P %/ (CL): 45%; Cell fluorescence /F/ [7]: -; Cell multiplication coefficient /M/ [7]: 0,16; Percentage of living cells /P %/ [7]: 15%; Cell fluorescence /F/ [8]: ++; Cell multiplication coefficient /M/ [8]: 0,16; Percentage of living cells /P %/ [8]: 33% |
| CC1=C(CCC(=O)O)c2cc3[nH]c(cc4nc(cc5[nH]c(cc1n2)c(C(C)NC(CO)C(=O)O)c5C)C(C(C)NC(CO)C(=O)O)=C4C)c(C)c3CCC(=O)O.N=C(N)NCCC[C@H](N)C(=O)O.N=C(N)NCCC[C@H](N)C(=O)O (stereo not drawn) [PP/Ser/2 /Arg/2, l-arginine di/N-seryl/-protoporphyrinate] | ++ | 0 | 0% | + | 0,50 | 25% | + | 0,12 | 12% | +++ | 0,60 | 40% | + | 0,37 | 37% | ++ | 0,50 | 33% | ++ | 0,02 | Percentage of living cells /P %/ (PZ): 2,5%; Cell fluorescence /F/ (CL): +; Cell multiplication coefficient /M/ (CL): 0; Percentage of living cells /P %/ (CL): 0%; Cell fluorescence /F/ [7]: -; Cell multiplication coefficient /M/ [7]: 0,16; Percentage of living cells /P %/ [7]: 0%; Cell fluorescence /F/ [8]: ++; Cell multiplication coefficient /M/ [8]: 0,50; Percentage of living cells /P %/ [8]: 55% |
